This passage reports EC50 results from patent US11098010B2 (priority 2017, dated 2021).

Where two headings read alike, the source gives them in different places.

The test system of the test is HBV rcDNA in HepDE19 cells. As to the kind of experiment: HepDE19 assay with bDNA quantitation of HBV rcDNA. Conditions: HepDE19 cells, inhibition of rcDNA formation, 7 day incubation, top concentration 25 μM, read-out: DE-19 bDNA EC50. In kind it is cell-based, hepatitis B virus (HBV).
[1] abbreviates: Hepatitis B virus, HepDE19, 168 h.

In the case of `CN1Cc2c(C(=O)Nc3ccc(F)c(Cl)c3)cccc2S1(=O)=O` [Compound 277, N-(3-Chloro-4-fluorophenyl)-2-methyl-2,3-dihydrobenzo[d]isothiazole-4-carboxamide 1,1-dioxide], the EC50 (as a rule, the concentration needed to bring the measured effect to its halfway point) under setting [1] is 2.2 µM.
On to `CC(C)N1Cc2c(C(=O)Nc3ccc(F)c(Cl)c3)cccc2S1(=O)=O` [Compound 278, N-(3-Chloro-4-fluorophenyl)-2-isopropyl-2,3-dihydrobenzo[d]isothiazole-4-carboxamide 1,1-dioxide], for which, under setting [1], the EC50 turned out to be 1.3 µM.
The same measure, in the same setting: under `O=C(Nc1ccc(F)c(Cl)c1)c1cccc2c1CN(C1CC1)S2(=O)=O` [Compound 279, N-(3-chloro-4-fluorophenyl)-2-cyclopropyl-2,3-dihydrobenzo[d]isothiazole-4-carboxamide 1,1-dioxide] stands 0.58 µM; under `CC(C)(C)[S@+]([O-])N[C@H]1CCc2c(C(=O)Nc3ccc(F)c(Cl)c3)ccc(F)c21` [Compound 280, (S)-1-(((S)-tert-Butylsulfinyl)amino)-N-(3-chloro-4-fluorophenyl)-7-fluoro-2,3-dihydro-1H-indene-4-carboxamide], 4.6 µM; under `CC(C)(C)[S@@+]([O-])N[C@H]1CCc2c(C(=O)Nc3ccc(F)c(Cl)c3)ccc(F)c21` [Compound 281, (S)-1-(((R)-tert-Butylsulfinyl)amino)-N-(3-chloro-4-fluorophenyl)-7-fluoro-2,3-dihydro-1H-indene-4-carboxamide], 4.4 µM.
As for `COC(=O)NC1CC(C)(C)c2c(C(=O)Nc3ccc(F)c(Cl)c3)ccc(F)c21` (stereo not drawn) [Compound 282, O-methyl, N-(4-((3-chloro-4-fluorophenyl)carbamoyl)-7-fluoro-3,3-dimethyl-2,3-dihydro-1H-inden-1-yl) carbamate], the half-maximal effective concentration (EC50) is 15 µM.
